Assay: Inhibition of [3H](+)-pentazocine binding to sigma receptor of guinea pig brain homogenates

Structure (SMILES) | Ki [µM]
c1ccc2sc(C3(N4CCCCC4)CCCCCC3)cc2c1 [1-(1-Benzo[b]thiophen-2-yl-cycloheptyl)-piperidine] | 2.23
c1ccc2sc(C3(N4CCCC4)CCCC3)cc2c1 [1-(1-Benzo[b]thiophen-2-yl-cyclopentyl)-pyrrolidine] | 0.125
c1ccc2sc(C3(N4CCCCCC4)CCCCC3)cc2c1 [1-(1-Benzo[b]thiophen-2-yl-cyclohexyl)-azepane] | 0.674
NC1(c2cc3ccccc3s2)CCCCCC1 [1-Benzo[b]thiophen-2-yl-cycloheptylamine] | 9.17
NC1(c2cc3ccccc3s2)CCCCC1 [1-Benzo[b]thiophen-2-yl-cyclohexylamine] | 3.17
NC1(c2cc3ccccc3s2)CCCC1 [1-Benzo[b]thiophen-2-yl-cyclopentylamine] | 1.73
c1ccc2sc(C3(N4CCCCC4)CCCC3)cc2c1 [1-(1-Benzo[b]thiophen-2-yl-cyclopentyl)-piperidine] | 1.1
c1ccc2sc(C3(N4CCCCCC4)CCCC3)cc2c1 [1-(1-Benzo[b]thiophen-2-yl-cyclopentyl)-azepane] | 2.89
c1ccc2sc(C3(N4CCCC4)CCCCC3)cc2c1 [1-(1-Benzo[b]thiophen-2-yl-cyclohexyl)-pyrrolidine] | 0.168
c1ccc2sc(C3(N4CCCC4)CCCCCC3)cc2c1 [1-(1-Benzo[b]thiophen-2-yl-cycloheptyl)-pyrrolidine] | 0.72
c1ccc2sc(C3(N4CCCCCC4)CCCCCC3)cc2c1 [1-(1-Benzo[b]thiophen-2-yl-cycloheptyl)-azepane] | 2.71

Reference: BindingDB's records for doi:10.1021/jm00061a009 (National Institute of Diabetes and Digestive and Kidney …, 1993)
